How the values were obtained:
[1] = biological target: T1, Phospholipase A2, membrane associated (Homo sapiens) (UniProt P14555); assay: Compound was evaluated for inhibition of phospholipase A2 (PLA2) isolated from human platelets at a concentration of 100 uM
T1 sequence (whole entry): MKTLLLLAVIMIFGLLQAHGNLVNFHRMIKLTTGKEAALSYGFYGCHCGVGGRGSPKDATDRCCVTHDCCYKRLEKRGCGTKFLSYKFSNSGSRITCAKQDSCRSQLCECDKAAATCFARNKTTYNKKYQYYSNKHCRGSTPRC

[2] = biological target: T1, Phospholipase A2, membrane associated (Homo sapiens); assay: Compound was evaluated for inhibition of phospholipase A2 (PLA2) isolated from human platelets at a concentration of 10 uM
[3] = tested on: Mus musculus; assay: Effective dose to reduce mouse ear edema in a phorbol ester induced inflammation assay; type: functional
[4] = biological target: T2, Phospholipase A2, membrane associated (Homo sapiens, UniProt P14555); assay: Compound was evaluated for inhibition of human platelet phospholipase A2 (HP-PLA2).
T2 sequence (P14555 whole entry): T1 sequence (whole entry)

Row | inhibition [1] | inhibition [2] | IC50 [4] | SMILES | ED50 [3]
1 | 92% | 26% | – | CCCCCCCCCCc1ccc(NC(=O)c2ccccc2-c2ccccc2C(=O)O)cc1 | –
2 | 63% | 6% | – | CC(C)c1ccc2c(c1)CC[C@H]1C[C@](C)(CNC(=O)c3ccccc3-c3ccccc3C(=O)O)CC[C@]21C | –
3 | 23% | 2% | – | CCCCCCCCCCOc1ccc(NC(=O)c2ccccc2-c2ccccc2C(=O)O)cc1OCC(=O)O | –
4 | 8% | 2% | – | O=C(O)c1ccccc1-c1ccccc1C(=O)Nc1ccc2ccccc2c1 | –
5 | 15% | 2% | – | O=C(O)c1ccccc1-c1ccccc1C(=O)NC1CCCCCCC1 | –
6 | 98% | 85% | – | CCCCCCCCCCOc1ccc(NC(=O)c2ccccc2-c2ccccc2C(=O)O)cc1OCCCCCCCCCC | –
7 | 35% | 14% | – | CC1(C)CCC(C)(C)c2cc(NC(=O)c3ccccc3-c3ccccc3C(=O)O)ccc21 | –
8 | 0% | 0% | – | O=C(O)c1ccccc1-c1ccccc1C(=O)NCCc1c[nH]c2ccc(O)cc12 | –
9 | – | – | 40 µM | CC1=C(/C=C/C(C)=C/C=C(/C(C)=C/C(=O)O)c2cccc(C(=O)O)c2)C(C)(C)CCC1 | 160 ug ear-1
